Patent US6737431B2 (Bristol-Myers Squibb Company, priority 2002, dated 2004)

Tests used:
melatonin ML1a receptor = molecular target: T1, melatonin ML1a receptor (Homo sapiens, UniProt P48039); assay: Melatonergic receptor binding, 2-[125I]-iodomelatonin, ML1a; settings: NIH-3T3 membranes, 0.1 nM 2-[125I]-iodomelatonin, 37° C. 1 hour
T1 construct: expressed in transfected cells; membrane homogenates
Protocol: (§1) Melatonergic Receptor Binding Activity
(§2) (a) TME=50 mM Tris buffer containing 12.5 mM MgCl2, and 2 mM EDTA, pH 7.4 at 37° C., with concentrated HCl.
(§3) (b) Wash buffer: 20 mM Tris base containing 2 mM MgCl2, pH 7.4 at room temperature.
(§4) (c) 10^−4 M melatonin (10^−5 M final concentration).
(d) 2-[^125I]-iodomelatonin ML1a, 0.1 nM final concentration.
(§5) 2. Membrane Homogenates: The melatonin ML1a and ML1b receptors cDNA were individually subcloned into pcDNA3 and introduced into NIH-3T3 cells using Lipofectamine. Transformed NIH-3T3 cells resistant to geneticin (G-418) were isolated, and single colonies expressing high levels of 2[^125I]-iodomelatonin binding were isolated. Cells are maintained in DMEM supplemented with 10% calf serum and G-418 (0.5 g/liter). Cells are grown to confluency in T-175 flasks, scraped using Hank's balanced salt solution, and frozen at −80° C. For preparing membrane homogenates, pellets are thawed on ice, and re-suspended in TME buffer in the presence of 10 μg/ml aprotinin and leupeptin, and 100 μM phenylmethylsulfonylfluoride. The cells were then homogenized using a dounce homogenizer, and centrifuged. The resulting pellet was re-suspended with dounce homogenizer in TME (supplemented with the above protease inhibitors) and frozen. On the day of assay, a small aliquot was thawed on ice and re-suspended in the ice cold TME (1:50-1:100 v/v) and held on ice until assayed.
(§6) 3. Incubation: 37° C. for 1 hour. Reaction is terminated by filtration. Filters were washed 3 times.
(§7) 4. References: Reppert, S. M. et al., Neuron, 13, p. 1177-1185 (1994); and Reppert, S. M. et al., Proc. Natl. Acad. Sci. USA, 92, p. 8734-8738 (1995).
(§8) The compounds of the present invention have affinity for receptors of the endogenous pineal hormone, melatonin, as determined in receptor binding assays described above in Tables I to III for the ML1a and ML1b (human) receptors. Melatonin is involved in the regulation of a variety of biological rhythms and exerts its biological effects via interaction with specific receptors. There is evidence that administration of melatonin agonists are of clinical utility in the treatment of various conditions regulated by melatonin activity. Such conditions include depression, jet-lag, work-shift syndrome, sleep disorders, glaucoma, some disorders associated with reproduction, cancer benign prostatic hyperplasia, immune disorders, and neuroendocrine disorders.

melatonin ML1b receptor = molecular target: T2, melatonin ML1b receptor (Homo sapiens, UniProt P49286); assay: Melatonergic receptor binding, 2-[125I]-iodomelatonin, ML1b; settings: NIH-3T3 membranes, 0.2 nM 2-[125I]-iodomelatonin, 37° C. 1 hour
T2 construct: expressed in transfected cells; membrane homogenates
T2 sequence (P49286 1-362): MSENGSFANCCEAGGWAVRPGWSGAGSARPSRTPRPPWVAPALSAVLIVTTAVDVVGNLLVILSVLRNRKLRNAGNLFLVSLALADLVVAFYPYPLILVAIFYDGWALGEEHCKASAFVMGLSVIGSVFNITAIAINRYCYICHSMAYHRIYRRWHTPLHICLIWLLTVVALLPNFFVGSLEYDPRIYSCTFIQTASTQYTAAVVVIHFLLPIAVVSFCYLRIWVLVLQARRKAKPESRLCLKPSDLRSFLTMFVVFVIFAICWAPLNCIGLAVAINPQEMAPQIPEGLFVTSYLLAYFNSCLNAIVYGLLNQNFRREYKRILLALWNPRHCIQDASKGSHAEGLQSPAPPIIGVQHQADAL
Protocol: as §1, §2, §3, §4
(e) 2-[^125I]-iodomelatonin ML1b, 0.2 nM final concentration.
as §5, §6, §7, §8

T1 sequence (P48039 whole entry): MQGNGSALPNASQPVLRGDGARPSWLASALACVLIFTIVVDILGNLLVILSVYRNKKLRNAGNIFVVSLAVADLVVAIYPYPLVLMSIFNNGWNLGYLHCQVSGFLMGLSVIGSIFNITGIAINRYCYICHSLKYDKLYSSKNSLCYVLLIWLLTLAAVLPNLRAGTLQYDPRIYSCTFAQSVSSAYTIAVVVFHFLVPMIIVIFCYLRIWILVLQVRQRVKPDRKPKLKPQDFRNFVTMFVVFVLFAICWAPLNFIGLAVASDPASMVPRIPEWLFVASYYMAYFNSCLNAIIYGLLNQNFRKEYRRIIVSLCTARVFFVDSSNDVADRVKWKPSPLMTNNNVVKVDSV

Row | SMILES | IC50 (melatonin ML1a receptor; Table I) | IC50 (melatonin ML1b receptor; Table I) | IC50 (melatonin ML1a receptor; Table II) | IC50 (melatonin ML1b receptor; Table II)
1 | CC(C)c1nc2cccc(CCCNC(=O)C3CC3)c2o1 [Example 38, Cyclopropyl-N-{3-[2-(methylethyl)benzoxazol-7-yl]propyl}carboxamide] | 10 to 250 nM | > 250 nM | – | –
2 | CCNC(=O)NCCCc1cccc2nc(C(C)C)oc12 [Example 39, (Ethylamino)-N-{3-[2-(methylethyl)benzoxazol-7-yl]propyl}carboxamide] | > 250 nM | 10 to 250 nM | – | –
3 | CCc1nc2cc(Br)cc(CCCNC(=O)OC(C)(C)C)c2o1 [Example 40] | – | – | 10 to 250 nM | > 250 nM
4 | C=Cc1ccc2nc(CC)oc2c1CCCNC(=O)OC(C)(C)C [Example 41, N-t-Butoxycarbonyl 7-(3-aminopropyl)-6-vinyl-2-ethylbenzoxazole] | – | – | > 250 nM | > 250 nM
5 | CCc1nc2ccc(Br)c(CCCNC(C)=O)c2o1 [Example 42, N-Acetyl-7-(3-aminopropyl)-6-bromo-2-ethylbenzoxazole] | – | – | 10 to 250 nM | < 10 nM
6 | C=Cc1ccc2nc(CC)oc2c1CCCNC(C)=O [Example 43, N-Acetyl-7-(3-aminopropyl)-6-vinyl-2-ethylbenzoxazole] | – | – | 10 to 250 nM | < 10 nM
7 | CCc1nc2ccc(C)c(CCCNC(C)=O)c2o1 [Example 44, N-[3-(2-Ethyl-6-methylbenzoxazol-7-yl)propyl]acetamide] | – | – | 10 to 250 nM | 10 to 250 nM
8 | CCc1nc2ccc(C)c(CCCNC(=O)c3ccccc3)c2o1 [Example 45, N-[3-(2-Ethyl-6-methylbenzoxazol-7-yl)propyl]benzamide] | – | – | 10 to 250 nM | 10 to 250 nM
9 | CCc1nc2ccc(C)c(CCCNC(=O)C3CC3)c2o1 [Example 46, Cyclopropyl-N-[3-(2-ethyl-6-methylbenzoxazol-7-yl)propyl]carboxamide] | – | – | < 10 nM | < 10 nM
10 | CCc1nc2ccc(-c3ccc(F)cc3)c(CCCNC(C)=O)c2o1 [Example 47, N-{3-[2-Ethyl-6-(4-fluorophenyl)benzoxazol-7-yl]propyl}acetamide] | – | – | 10 to 250 nM | < 10 nM
11 | CCc1nc2ccc(-c3ccc(F)cc3)c(CCCNC(=O)c3ccccc3)c2o1 [Example 48, N-{3-[2-Ethyl-6-(4-fluorophenyl)benzoxazol-7-yl]propyl}benzamide] | – | – | > 250 nM | 10 to 250 nM
12 | CCc1nc2ccc(-c3ccc(F)cc3)c(CCCNC(=O)C3CC3)c2o1 [Example 49, Cyclopropyl-N-{3-[2-ethyl-6-(4-fluorophenyl)benzoxazol-7-yl]propyl}carboxamide] | – | – | 10 to 250 nM | < 10 nM
13 | CCc1nc2ccc(-c3ccc(C(F)(F)F)cc3)c(CCCNC(C)=O)c2o1 [Example 50, N-(3-{2-Ethyl-6-[4-(trifluoromethyl)phenyl]benzoxazol-7-yl}propyl)acetamide] | – | – | > 250 nM | 10 to 250 nM
14 | CCc1nc2ccc(-c3ccc(C(F)(F)F)cc3)c(CCCNC(=O)C3CC3)c2o1 [Example 51, Cyclopropyl-N-(3-{2-ethyl-6-[4-(trifluoromethyl)phenyl]benzoxazol-7-yl}propyl)carboxamide] | – | – | > 250 nM | 10 to 250 nM
15 | CCc1nc2ccc(-c3ccc(OC)cc3)c(CCCNC(C)=O)c2o1 [Example 52, N-{3-[2-Ethyl-6-(4-methoxyphenyl)benzoxazol-7-yl]propyl}acetamide] | – | – | 10 to 250 nM | < 10 nM
16 | CCc1nc2ccc(-c3ccc(OC)cc3)c(CCCNC(=O)c3ccccc3)c2o1 [Example 53, N-{3-[2-Ethyl-6-(4-methoxyphenyl)benzoxazol-7-yl]propyl}benzamide] | – | – | > 250 nM | > 250 nM

Other lines, results leading:

Row | IC50 (melatonin ML1a receptor; Table I) | IC50 (melatonin ML1b receptor; Table I) | IC50 (melatonin ML1a receptor; Table II) | IC50 (melatonin ML1b receptor; Table II) | SMILES
17 | – | – | > 250 nM | 10 to 250 nM | CCc1nc2ccc(-c3ccc(OC)cc3)c(CCCNC(=O)C3CC3)c2o1 [Example 54, Cyclopropyl-N-{3-[2-ethyl-6-(4-methoxyphenyl)benzoxazol-7-yl]propyl}carboxamide]
18 | – | – | < 10 nM | < 10 nM | CCc1nc2ccc(-c3ccccc3)c(CCCNC(C)=O)c2o1 [Example 55, N-[3-(2-Ethyl-6-phenylbenzoxazol-7-yl)propyl]acetamide]
19 | – | – | 10 to 250 nM | 10 to 250 nM | CCc1nc2ccc(-c3ccccc3)c(CCCNC(=O)c3ccccc3)c2o1 [Example 56, N-[3-(2-Ethyl-6-phenylbenzoxazol-7-yl)propyl]benzamide]
20 | – | – | 10 to 250 nM | < 10 nM | CCc1nc2ccc(-c3ccccc3)c(CCCNC(=O)C3CC3)c2o1 [Example 57, Cyclopropyl-N-[3-(2-ethyl-6-phenylbenzoxazol-7-yl)propyl]carboxamide]
21 | – | – | 10 to 250 nM | 10 to 250 nM | CCc1nc2cc(-c3ccc(F)cc3)cc(CCCNC(C)=O)c2o1 [Example 58, N-[3-(2-Ethyl-5-(4-fluorophenyl)benzoxazol-7-yl)propyl]acetamide]
22 | – | – | > 250 nM | > 250 nM | CCc1nc2cc(-c3ccc(F)cc3)cc(CCCNC(=O)c3ccccc3)c2o1 [Example 59, N-{3-[2-Ethyl-5-(4-fluorophenyl)benzoxazol-7-yl]propyl}benzamide]
23 | – | – | 10 to 250 nM | 10 to 250 nM | CCc1nc2cc(-c3ccc(F)cc3)cc(CCCNC(=O)C3CC3)c2o1 [Example 60, Cyclopropyl-N-{3-[2-ethyl-5-(4-fluorophenyl)benzoxazol-7-yl]propyl}carboxamide]
24 | – | – | 10 to 250 nM | > 250 nM | CCc1nc2cc(-c3ccc(C(F)(F)F)cc3)cc(CCCNC(=O)c3ccccc3)c2o1 [Example 61, N-(3-{2-Ethyl-5-[4-(trifluoromethyl)phenyl]benzoxazol-7-yl}propyl)benzamide]
25 | – | – | 10 to 250 nM | 10 to 250 nM | CCc1nc2cc(-c3ccc(OC)cc3)cc(CCCNC(C)=O)c2o1 [Example 62, N-{3-[2-Ethyl-5-(4-methoxyphenyl)benzoxazol-7-yl]propyl}acetamide]
26 | – | – | 10 to 250 nM | > 250 nM | CCc1nc2cc(-c3ccc(OC)cc3)cc(CCCNC(=O)c3ccccc3)c2o1 [Example 63, N-{3-[2-Ethyl-5-(4-methoxyphenyl)benzoxazol-7-yl]propyl}benzamide]
27 | – | – | > 250 nM | > 250 nM | CCc1nc2cc(-c3ccc(OC)cc3)cc(CCCNC(=O)C3CC3)c2o1 [Example 64, Cyclopropyl-N-{3-[2-ethyl-5-(4-methoxyphenyl)benzoxazol-7-yl]propyl}carboxamide]
28 | – | – | > 250 nM | 10 to 250 nM | CCc1nc2cc(-c3ccccc3)cc(CCCNC(C)=O)c2o1 [Example 65, N-[3-(2-Ethyl-5-phenylbenzoxazol-7-yl)propyl]acetamide]
29 | – | – | > 250 nM | > 250 nM | CCc1nc2cc(-c3ccccc3)cc(CCCNC(=O)c3ccccc3)c2o1 [Example 66, N-[3-(2-Ethyl-5-phenylbenzoxazol-7-yl)propyl]benzamide]
30 | – | – | 10 to 250 nM | > 250 nM | CCc1nc2cc(-c3ccccc3)cc(CCCNC(=O)C3CC3)c2o1 [Example 67, Cyclopropyl-N-[3-(2-ethyl-5-phenylbenzoxazol-7-yl)propyl]carboxamide]
31 | – | – | > 250 nM | 10 to 250 nM | CCc1nc2cc(Br)cc(CCCNC(C)=O)c2o1 [Example 68, N-[3-(5-Bromo-2-ethylbenzoxazol-7-yl)propyl]acetamide]
32 | – | – | > 250 nM | > 250 nM | CCc1nc2cc(Br)cc(CCCNC(=O)c3ccccc3)c2o1 [Example 69, N-[3-(5-Bromo-2-ethylbenzoxazol-7-yl)propyl]benzamide]
33 | – | – | > 250 nM | 10 to 250 nM | CCc1nc2cc(Br)cc(CCCNC(=O)C3CC3)c2o1 [Example 70, N-[3-(5-Bromo-2-ethylbenzoxazol-7-yl)propyl]cyclopropylcarboxamide]
